Test system: adult male rabbits of the animal strain HsdHHL Watanables
Test: Erection (length of the protruding penis) in hypercholesterolemic rabbits after cGMP PDE inhibitor, with or without antilipemic pretreatment
Type: in vivo, rabbit
Conditions: cerivastatin sodium 1 mg/kg s.c. for 7 days
Description: In a placebo-controlled study, twelve adult male rabbits of the animal strain HsdHHL Watanables having a body weight of 3-5 kg, which, owing to breeding, suffer from hypercholesterolemia and arteriosclerosis, were treated with a selective cGMP PDE inhibitor (3 mg/kg, intravenously).
The animals had free access to water and, for 2 hours per day, to feed. The animals were kept in a 10/14 hour day/night rhythm (light on from 8 am onwards), and the ambient temperature was 22 to 24° C.
The selective cGMP PDE inhibitor used was 2-[2-ethoxy-5-(4-ethyl-piperazine-1-sulfonyl)-phenyl]-5-methyl-7-propyl-3H-imidazo[5,1-f][1,2,4]triazin-4-one hydrochloride trihydrate (Ex. 336 of WO-A-99/24433).
For intravenous injection, the PDE inhibitor was dissolved in physiological saline (0.9% by volume).
For seven days prior to the treatment with the PDE inhibitor, i.e. for 7 successive days, an antilipemic, i.e. cerivastatin sodium (i.e. the monosodium salt of cerivastatin) was administered subcutaneously to six of the twelve rabbits (1 mg/kg of body weight, cerivastatin sodium dissolved in physiological saline). […]
The erection was evaluated by measuring the length of the protruding penis using a vernier caliper. […] To this end, the animals were in each case removed from the cage, held by neck hair and hind legs, turned onto their back and measured. […]

`COCc1c(C(C)C)nc(C(C)C)c(/C=C/[C@@H](O)C[C@@H](O)CC(=O)O)c1-c1ccc(F)cc1` [cerivastatin sodium] was tested, and the “erection 1 day after the cerivastatin sodium pretreatment had ended compared with 3 days after (FIG. 2, upper vs middle curve)” value (then PDE inhibitor 3 mg/kg i.v., 1 day vs 3 days after end of pretreatment) was “still more pronounced” and the “erection after administration of the PDE inhibitor, compared with rabbits not pretreated with the antilipemic (FIG. 2)” value (then PDE inhibitor (Ex. 336 of WO-A-99/24433) 3 mg/kg i.v. 1 day and 3 days after pretreatment ended, measured 5-120 min, control saline pretreatment) was “considerably more pronounced erection”.

Reference: US20060189624A1, “Novel combination for treating sexual dysfunction” (Bayer Aktiengesellschaft, priority 1999, published 2006)
